Source: patent US8865894B2, “Oxazolidin-2-one compounds and uses thereof” (Novartis AG, priority 2012, dated 2014)

Columns and labels:
A2058 cells = test: Cell cycle G2/M arrest Cytospin assay to detect tubulin binding (off-target); assay type: cell-based; parameters: key: 0=no condensed DNA observed (indicating no off target activity); 1=(indicating weak off target activity); 2=(indicating medium off target activity); 3=large amount of condensed DNA observed (indicating strong off-target activity); conditions: 5 μM test item, 24 hours
Protocol: The off-target effect (evidence of tubulin binding) was measured as follows.
Cell cycle G2/M arrest Cytospin assay to detect tubulin binding (off-target) binding activities of MAPP derivatives: 5×10^5 cells A2058 cells were plated in 6-well cluster, with 2 mL of DMEM (high Glucose containing 1% sodium pyruvate, 1% glutamin and 10% FCS). 18 hours later, the test items were added at a concentration of 5 μM (spiking 1 μL of a 10 mM solution of the test item). 24 hours later, the cells were trypsinized and transferred into a 15 mL conical tube. Cells are then pelleted by centrifugation, and resuspended with PBS/0 (containing 10% FCS). Cells are counted with a CASY counter, and each samples equilibrated to 1×10^6 cells/mL. […] The staining was visually assessed for the presence of condensed DNA and given a score where 0=no condensed DNA observed (indicating no off target activity), 1=(indicating weak off target activity), 2=(indicating medium off target activity), 3=large amount of condensed DNA observed (indicating strong off-target activity).

[1] = target: T1, human PI3Kalpha p110 catalytic subunit (Rat-1 pBABEpuro Myr-HA-hp110alpha) (Homo sapiens, UniProt P42336); test: Cellular assay PI3Kalpha (p-Akt(S473) SureFire, Rat-1_PI3Kalpha cells); assay type: cell-based; conditions: 1 h compound treatment, read-out: Rat1-PI3Ka/ IC50
T1 construct: Myr (myristoylation signal) (N); HA (N); expressed in transfected cells; host or cells: Rat-1
Excerpt: AlphaScreen (Amplified Luminescent Proximity Homogeneous Assay, ALPHA, Perkin Elmer) is a non-radioactive bead-based proximity assay technology to study biomolecular interactions in a homogenous microtiter plate format. The brand name SureFire denotes AlphaScreen assays that are adapted to quantify the phosphorylation of endogenous cellular proteins in cell lysates, by using matched antibody pairs, which consist of an anti-phospho-kinase and an anti-kinase antibody. The assay allows characterization of kinase signaling in cells as well as measurement of kinase inhibitor effects. The AlphaScreen technology provides several advantages over standard assay techniques such as ELISA, as it avoids time-consuming washing procedures and reduces plate handling. Furthermore, it is miniaturizable at least to a 384-well format and provides sensitivity down to the femtomolar range, dependent on the affinity of the antibodies included in the individual AlphaScreen SureFire assay kit. High sensitivity is reached by an intrinsic amplification mechanism, which involves production of singlet oxygen molecules. SureFire assay kits are commercially available for specific targets and include pairs of validated antibodies (PerkinElmer). This report describes common procedures applied for AlphaScreen SureFire assays and respective semi-automated steps for routine kinase inhibitor profiling in cell-based assays.
The Rat-1 cell lines stably overexpressing activated PI3K class I isoforms Rat-1 pBABEpuro Myr-HA-hp110 delta (Rat-1_PI3Kdelta) and Rat-1 pBABEpuro Myr-HA-hp110alpha (Rat-1_PI3Kalpha) and Rat-1 pBABEpuro Myr-HA-hp110 beta (Rat-1_PI3beta) were prepared as described (Maira S M, Stauffer F, Brueggen J, Furet P, Schnell C, Fritsch C, Brachmann S, Chène P, de Pover A, Schoemaker K, Fabbro D, Gabriel D, Simonen M, Murphy L, Finan P, Sellers W, García-Echeverría C (2008), Mol Cancer Ther. 7:1851-63 and Maira S M, Pecchi S, Brueggen J, Huh K, Schnell C, Fritsch C, Nagel T, Wiesmann M, Brachmann S, Dorsch M, Chène P, Schoemaker K, De Pover A, Menezes D, Fabbro D, Sellers W, García-Echeverría C, Voliva C F (2011), Mol. Cancer Ther., accepted). All cell lines were cultivated in complete growth medium (DMEM high glucose, 10% (v/v) fetal bovine serum, 1% (v/v) MEM NEAA, 10 mM HEPES, 2 mM L-glutamine, puromycin (10 μg/mL for Rat-1_PI3Kdelta and Rat-1_PI3Kalpha, 4 ug/mL for Rat-1_PI3beta), 1% (v/v) Pen/Strep) to 90% confluency at 37° C./5% CO2/90% humidity in a humidified CO2 incubator and were split twice a week.
The following materials were used for p-AKT(S473) detection in Rat-1 cell lysates: Dulbecco's modified Eagle's medium (DMEM) high glucose (Gibco Invitrogen, Basel, Switzerland, Cat. No. 41965), Heat Inactivated Fetal Bovine Serum, Qualified (HI FBS; Gibco Invitrogen, Basel, Switzerland, Lot. No. 16140), MEM non essential amino acids (NEAA; Gibco Invitrogen, Basel, Switzerland, Cat. No. 11140), HEPES (Gibco Invitrogen, Basel, Switzerland, Cat. No. 15630), Penicillin/Streptomycin (Pen/Strep, 100×; Gibco Invitrogen, Basel, Switzerland, Cat. No. 15140-122), L-Glutamine (Gibco Invitrogen, Basel, Switzerland, Cat. No. 25030), Puromycin (Sigma Aldrich, Buchs, Switzerland, Cat. No. P9620), DMSO (MERCK, Dietikon, Switzerland, Cat. No. 8.02912.2500), H2O, MilliQ-H2O unless otherwise stated (MILLIPORE QGARDOOR1, Millipore, Zug, Switzerland), Bovine serum albumine (BSA; Sigma Aldrich, Buchs, Switzerland Cat. No. A8412), SureFire p-Akt 1/2 (Ser473) Assay Kit (PerkinElmer, Schwerzenbach, Switzerland, Cat. No. TGRAS50K).
The p-Akt(S473) SureFire assay measures the phosphorylation of endogenous cellular Akt 1/2 at Ser473 in cell lysates. Using Rat-1 cells stably expressing myr-HA-tagged versions of the human PI3Kdelta, PI3Kalpha, or PI3Kbeta p110 catalytic subunit isoforms, the assay was developed as a two-plate protocol in a 384-well format.

T1 sequence (P42336 whole entry): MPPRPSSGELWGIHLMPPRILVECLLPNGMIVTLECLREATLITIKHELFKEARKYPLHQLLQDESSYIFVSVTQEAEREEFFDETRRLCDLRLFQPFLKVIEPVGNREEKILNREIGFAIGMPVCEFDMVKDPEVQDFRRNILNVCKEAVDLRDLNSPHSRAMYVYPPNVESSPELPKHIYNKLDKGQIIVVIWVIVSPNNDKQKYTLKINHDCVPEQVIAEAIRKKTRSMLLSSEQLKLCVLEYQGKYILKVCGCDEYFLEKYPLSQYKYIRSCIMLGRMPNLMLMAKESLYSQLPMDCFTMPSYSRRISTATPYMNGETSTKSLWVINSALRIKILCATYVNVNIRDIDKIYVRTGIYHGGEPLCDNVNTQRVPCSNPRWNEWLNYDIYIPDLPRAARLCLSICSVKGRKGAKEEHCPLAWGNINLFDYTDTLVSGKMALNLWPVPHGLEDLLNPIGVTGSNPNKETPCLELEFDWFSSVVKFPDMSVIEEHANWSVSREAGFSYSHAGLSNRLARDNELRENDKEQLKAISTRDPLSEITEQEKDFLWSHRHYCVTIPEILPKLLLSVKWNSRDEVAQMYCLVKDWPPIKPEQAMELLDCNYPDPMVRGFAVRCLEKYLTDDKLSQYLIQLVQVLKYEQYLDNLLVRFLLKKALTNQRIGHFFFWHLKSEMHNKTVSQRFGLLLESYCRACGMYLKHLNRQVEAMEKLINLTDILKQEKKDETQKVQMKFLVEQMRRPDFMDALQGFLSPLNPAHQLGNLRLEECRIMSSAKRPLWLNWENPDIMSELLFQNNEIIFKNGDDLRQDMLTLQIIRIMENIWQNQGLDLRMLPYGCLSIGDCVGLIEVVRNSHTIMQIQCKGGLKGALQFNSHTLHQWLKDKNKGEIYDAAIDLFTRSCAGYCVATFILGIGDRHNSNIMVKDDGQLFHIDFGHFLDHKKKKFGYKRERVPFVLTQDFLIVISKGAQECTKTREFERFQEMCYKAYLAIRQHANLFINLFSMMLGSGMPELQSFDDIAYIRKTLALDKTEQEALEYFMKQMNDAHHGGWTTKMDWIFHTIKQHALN
T1 sequence (Q63787 whole entry partner): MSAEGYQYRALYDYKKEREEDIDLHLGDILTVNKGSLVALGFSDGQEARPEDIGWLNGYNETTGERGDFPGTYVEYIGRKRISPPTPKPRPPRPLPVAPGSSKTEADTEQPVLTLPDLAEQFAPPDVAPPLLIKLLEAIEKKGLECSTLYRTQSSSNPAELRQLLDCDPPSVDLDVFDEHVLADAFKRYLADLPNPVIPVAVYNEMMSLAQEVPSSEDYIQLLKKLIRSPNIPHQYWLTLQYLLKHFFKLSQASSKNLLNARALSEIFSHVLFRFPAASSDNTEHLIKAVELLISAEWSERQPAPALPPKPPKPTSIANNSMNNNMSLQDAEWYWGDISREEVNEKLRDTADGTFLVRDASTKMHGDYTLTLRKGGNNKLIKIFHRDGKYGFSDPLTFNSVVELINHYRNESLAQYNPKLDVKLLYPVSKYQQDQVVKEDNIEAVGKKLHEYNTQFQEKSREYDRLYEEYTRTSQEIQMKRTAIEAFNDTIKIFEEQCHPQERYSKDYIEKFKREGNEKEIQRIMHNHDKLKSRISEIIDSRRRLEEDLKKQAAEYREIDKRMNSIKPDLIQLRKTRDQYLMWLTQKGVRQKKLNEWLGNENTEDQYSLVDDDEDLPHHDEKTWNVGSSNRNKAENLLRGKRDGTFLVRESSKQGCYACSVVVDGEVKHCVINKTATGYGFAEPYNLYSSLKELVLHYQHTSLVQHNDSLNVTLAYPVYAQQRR

| SMILES | melting point [°C] | Score (condensed DNA, G2/M arrest; off-target tubulin binding) (A2058 cells) | IC50 [1] [nM] |
| --- | --- | --- | --- |
| C[C@H]1CN(c2cc(-c3cnc(N)nc3C(F)(F)F)nc(N3CCOCC3)n2)C(=O)O1 [Example 16, (S)-3-(2′-Amino-2-morpholin-4-yl-4′-trifluoromethyl-[4,5′]bipyrimidinyl-6-yl)-5-methyl-oxazolidin-2-one] | – | 0 | 108 |
| [2H]C1([2H])OC([2H])([2H])C([2H])([2H])N(c2nc(-c3cnc(N)nc3C(F)(F)F)cc(N3C(=O)OC[C@@H]3C)n2)C1([2H])[2H] [Example 17, (S)-3-(2′-amino-2-D8-morpholino-4′-(trifluoromethyl)-[4,5′-bipyrimidin]-6-yl)-4-methyloxazolidin-2-one] | – | 0 | 178 |
| Nc1ncc(-c2cc(N3C[C@H](CO)OC3=O)nc(N3CCOCC3)n2)c(C(F)(F)F)n1 [Example 20, (R)-3-(2′-Amino-2-morpholin-4-yl-4′-trifluoromethyl-[4,5′]bipyrimidinyl-6-yl)-5-hydroxymethyl-oxazolidin-2-one] | – | 1-2 | 158 |
| Nc1ncc(-c2cc(N3C(=O)O[C@H]4COC[C@H]43)nc(N3CCOCC3)n2)c(C(F)(F)F)n1 [Example 21, (3aR,6aR)-3-(2′-amino-2-morpholino-4′-(trifluoromethyl)-[4,5′-bipyrimidin]-6-yl)-tetrahydrofuro[3,4-d]oxazol-2(3H)-one] | – | 0 | 85 |

Now from value to compound:

| melting point [°C] | Score (condensed DNA, G2/M arrest; off-target tubulin binding) (A2058 cells) | IC50 [1] [nM] | SMILES |
| --- | --- | --- | --- |
| 217.7 | 0 | 61 | C[C@H]1OC(=O)N(c2cc(-c3cnc(N)nc3C(F)(F)F)nc(N3CCOC[C@@H]3C)n2)[C@H]1CO [Example 10, (4S,5R)-3-[2′-Amino-2-((S)-3-methyl-morpholin-4-yl)-4′-trifluoromethyl-[4,5′]bipyrimidinyl-6-yl]-4-hydroxymethyl-5-methyl-oxazolidin-2-one] |
| – | 0 | 38 | C[C@H]1OC(=O)N(c2cc(-c3cnc(N)nc3C(F)(F)F)nc(N3CCOCC3)n2)[C@H]1CO [Example 18, (4S,5R)-3-(2′-Amino-2-morpholin-4-yl-4′-trifluoromethyl-[4,5′]bipyrimidinyl-6-yl)-4-hydroxymethyl-5-methyl-oxazolidin-2-one] |
| – | 0 | 50 | C[C@H]1[C@@H](CO)OC(=O)N1c1cc(-c2cnc(N)nc2C(F)(F)F)nc(N2CCOCC2)n1 [Example 19, (4S,5S)-3-(2′-Amino-2-morpholin-4-yl-4′-trifluoromethyl-[4,5′]bipyrimidinyl-6-yl)-5-hydroxymethyl-4-methyl-oxazolidin-2-one] |
| – | 0 | 20 | C[C@H]1[C@@H](CCO)OC(=O)N1c1cc(-c2cnc(N)nc2C(F)(F)F)nc(N2CCOCC2)n1 [Example 23, (4S,5R)-3-(2′-Amino-2-morpholino-4′-(trifluoromethyl)-[4,5′-bipyrimidin]-6-yl)-5-(2-hydroxyethyl)-4-methyloxazolidin-2-one] |
